In US7981878B2, “Tumor treatment with gliotoxin derivatives” (priority 2005, dated 2011):

Tests used:
B-CLL cells = experiment: Apoptosis of B-CLL cells by FACS (Probidium iodide/annexinV); assay type: cell-based, human; settings: for apoptosis: 0.2 μM gliotoxin, 4 hours
Procedure: FIG. 3: Gliotoxin is a potent Notch2 trans-activation inhibitor in B-CLL cells. (A) EMSA showing the inhibition of DNA-bound Notch2IC complexes in the presence of 0.2 μg Gliotoxin. B-CLL samples (n=10) were cultured in the presence of 1 ng/ml TPA with or without 0.2 μM Gliotoxin for 24 hours. Nuclear extracts were subjected to EMSA using a oligonucleotide probe spanning a well defined CBF1/NotchIC binding site derived from the CD23a promoter. (B). Corresponding FACS analysis (plus 10 additional B-CLL samples) showing the downregulation of the Notch2 target gene CD23 as well as the induction of apoptosis of Gliotoxin treated B-CLL samples. Columnes represent the percentage of CD19^+CD23^+ (grey bars) and apoptotic cells (black bars: including early apoptotic cells single positive for AnnexinV, and late apoptotic cells double positive for AnnexinV and probidium iodide), respectively.
FIG. 4: Gliotoxin induces apoptosis in unstimulated as well as in TPA-stimulated B-CLL cells within 4 hours. Normal PBMCs (peripheral blood mononuclear cells) from healthy donors show a markedly lower Notch2 activity. Although gliotoxin inhibits Notch2 also in normal, TPA-stimulated cells, the gliotoxin-caused apoptosis rate is markedly lower in normal cells as compared to B-CLL cells. Non-stimulated and TPA stimulated PBMC's from healthy donors (HD) are less sensitive to 0.2 μM Gliotoxin despite a basal Notch2 activity. PBMC's and CLL cells were incubated with 0.2 μM Gliotoxin with or without TPA for 4 hours and the Notch2 activity as well as the percentage of apoptotic cells were determined by EMSA and FACS analysis, respectively.
As drug screening model, a cell culture system was established which conserves the phenotype of freshly isolated B-CLL cells (3×10^6 B-CLL cells/ml RPMI medium+10% FCS, supplemented with 1 ng/ml of TPA). Notch2 activity in the cell nucleus is determined by means of EMSA (electrophoretic mobility shift assay) experiments, and the cell viability (Probidium iodide/annexinV) and CD23 expression (Notch2 target gene) is determined by means of FACS (flow cytometry) analyses, respectively.
B-CLL cells were cultured for 24 h in the presence of 0.2 μM/ml of gliotoxin. This treatment led to a dramatic loss of the transcriptional Notch2 activity, as shown in the following representative EMSA (FIG. 3).
After 4 hours of gliotoxin treatment, massive signs of the starting apoptosis (AnnexinV+) could already be recognized in B-CLL cells. This effect was increased by TPA (a phorbol ester which stimulates the activation of lymphocytes).

RL-7 = experiment: Apoptosis FACS in leukaemia cell line RL-7; assay type: cell-based; settings: RL-7, 0.2 μM gliotoxin, 24 h
Procedure: FIG. 7: (A) The apoptotic activity of gliotoxin on further B-CLL patient samples (CLL4-CLL8) is illustrated. The (non-Notch2-associated) leukaemia cell lines (or the leukaemia cell lines not characterised by ligand-independent Notch2 fragments) Jurkat (T-ALL), SH1 (hairy cell carcinoma), RL-7 and K562 (CML) are resistant to a treatment with 0.2 μM (corresponding to 60 ng/ml) of gliotoxin. Cells were incubated for 24 h+/−gliotoxin, and the percentage of apoptotic cells (probidium-iodide+/annexinV+) was determined by means of FACS analysis. In none of the 4 non-Notch2-associated cell lines indicated, the application of 0.2 μM of gliotoxin led to a significant induction of apoptosis within 24 hours. The cytotoxic effect of Gliotoxin correlates with the Notch2 activity in leukemias. (B) Corresponding EMSA showing the activity of Notch2 in B-CLL cells and in leukemic cell lines (Jurkat, SH1, RL7, and K562).

518A2 (melanoma) = experiment: Cell count analysis 518A2; assay type: cell-based, human
Procedure: FIG. 8 a-d: Effects of gliotoxin on cell counts of various human tumour cell lines in vitro. Cell counts of a) hepatocellular carcinoma cell lines HepG2, Huh7, SNU398, Hep3b, HeLa (cervix) and the cholangiocarcinoma cell line NEC as well as b) the pancreatic cancer cell line Panc-1 and the melanoma cell lines d) MelJuso, Meljuso-Bcl-2 (+) and 607B after 72 h treatment with 200 nM gliotoxin; c-d) Cell count dose range experiments with c) pancreatic carcinoma cell lines Panc-1 and MiaPaCa as well as melanoma cell lines MelJuso, 518A2 and 607B using 25, 50 100 and 200 nM gliotoxin for 24 h. All data are given relative to control ±standard deviation.
Tumour cells were seeded at a density of 10,000 cells/well in 24-well plates. 24 h after seeding, medium containing gliotoxin was added to yield desired concentrations of gliotoxin. At time points indicated, culture medium was removed by suction. Adherent cells were washed with DPBS (Cambrex, Verviers, Belgium) and incubated with trypsin (Gibco) at 37° C. Detached cells were transferred to test tubes containing Cellpack isotonic fluid (Sysmex Europe, Bornbarch, Germany) and counted with a Coulter Z1 electronic cell counter (Beckman Coulter, Bedford, UK).

For `CN1C(=O)[C@]23CC4=CC=C[C@H](O)[C@H]4N2C(=O)[C@@]1(CO)SS3` [gliotoxin, [3R-(3α,5aβ,6β,10aα)]-2,3,5a,6-tetrahydro-6-hydroxy-3-(hydroxymethyl)-2-methyl-10H-3,10a-epi-dithiopyrazino[1,2-a]indol-1,4-dion], the “mean value of apoptosis” value (B-CLL cells; B-CLL cells cultured 24 h with 0.2 μM gliotoxin, n=10) was 73%, the response (B-CLL cells; B-CLL-cases, 0.2 μM (60 ng/ml)) was about 100% and the apoptosis (B-CLL cells; TPA-stimulated B-CLL cells) was 73%. For the same molecule, the apoptosis (B-CLL cells; non-stimulated B-CLL cells) was 54%, the “induction of apoptosis (probidium-iodide+/annexinV+)” value (RL-7) was “resistant” and the “effect on cell count” value (518A2 (melanoma); 518A2, 200 nM gliotoxin, 72 h) was “very effective”. The “cytotoxicity in dose range experiment (cell count)” value (518A2 (melanoma); 518A2, 25, 50, 100 and 200 nM, 24 h) was “clear dose dependent cytotoxicity”.
